According to PMC6189370, “Olmutinib (BI1482694/HM61713), a Novel Epidermal Growth Factor Receptor Tyrosine Kinase Inhibitor, Reverses ABCG2-Mediated Multidrug Resistance in Cancer Cells” (Frontiers in Pharmacology, 2018):

Target: T1, ABCG2 (Homo sapiens, UniProt Q9UNQ0)
T1 construct: membrane vesicles of High Five insect cells
T1 sequence (Q9UNQ0 1-655): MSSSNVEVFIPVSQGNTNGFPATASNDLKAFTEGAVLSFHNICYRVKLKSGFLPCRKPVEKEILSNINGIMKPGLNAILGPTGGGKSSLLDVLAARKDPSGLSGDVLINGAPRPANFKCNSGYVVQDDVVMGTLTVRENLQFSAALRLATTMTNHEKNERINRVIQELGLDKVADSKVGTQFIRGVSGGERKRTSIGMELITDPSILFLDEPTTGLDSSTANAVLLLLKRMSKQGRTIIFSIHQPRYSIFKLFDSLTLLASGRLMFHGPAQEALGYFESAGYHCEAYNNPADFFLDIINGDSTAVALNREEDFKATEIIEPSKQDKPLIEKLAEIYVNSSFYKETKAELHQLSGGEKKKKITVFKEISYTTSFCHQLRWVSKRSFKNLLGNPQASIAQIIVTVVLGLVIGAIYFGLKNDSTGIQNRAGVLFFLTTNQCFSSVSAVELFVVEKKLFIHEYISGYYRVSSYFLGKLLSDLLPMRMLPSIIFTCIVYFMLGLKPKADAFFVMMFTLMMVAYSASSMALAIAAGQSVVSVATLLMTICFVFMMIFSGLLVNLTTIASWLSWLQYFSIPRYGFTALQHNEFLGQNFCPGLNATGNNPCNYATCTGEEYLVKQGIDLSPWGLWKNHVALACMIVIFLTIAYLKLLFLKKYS
Assay: biochemical

C=CC(=O)Nc1cccc(Oc2nc(Nc3ccc(N4CCN(C)CC4)cc3)nc3ccsc23)c1 [olmutinib]
EC50: 2200 nM
